# Measured values published in US11680060B2, “Bicycloheptane pyrrolidine orexin receptor agonists” (Merck Sharp & Dohme LLC, priority 2020, dated 2023).
# Target: human OX2R (Homo sapiens (Human), UniProt O43614)
# Assay: IPOne (IP-1) assay in CHO cells expressing human OX2R
# Assay type: cell-based
# Conditions: for Emax: CHO, read-out: Emax (%); for Emax / Emax (%): percentage of mean max effect of a reference compound at 1 uM (100% activity by comparison to Orexin A), human OX2R; for IC50: CHO cells expressing human OX2R, IP-One detection, 2 hours incubation, EC50 = inflection point of four parameter logistic fit, read-out: hOX2R_IP_IC50
# In short: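 CHO cells stably expressing human OX2R were stimulated with compound (10-point ½-log dilutions) for 2 h at 37 °C. IP-1 accumulation was read by HTRF (IP-One, 665/620 nm). EC50 from a four-parameter fit; % effect relative to 1 μM reference agonist control.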
# Chain of human OX2R (O43614 whole entry): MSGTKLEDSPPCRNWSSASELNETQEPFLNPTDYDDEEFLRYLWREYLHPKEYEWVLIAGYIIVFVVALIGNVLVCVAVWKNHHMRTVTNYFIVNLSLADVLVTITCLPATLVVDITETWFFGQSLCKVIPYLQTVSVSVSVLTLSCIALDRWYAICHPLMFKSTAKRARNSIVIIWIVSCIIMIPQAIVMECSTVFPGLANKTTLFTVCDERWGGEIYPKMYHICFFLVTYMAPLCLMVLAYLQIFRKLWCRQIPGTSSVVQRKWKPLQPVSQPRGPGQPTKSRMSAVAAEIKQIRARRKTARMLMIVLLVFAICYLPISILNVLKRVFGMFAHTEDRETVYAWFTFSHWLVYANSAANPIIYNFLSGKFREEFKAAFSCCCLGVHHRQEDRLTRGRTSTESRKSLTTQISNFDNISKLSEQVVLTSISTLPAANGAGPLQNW
SMILES,Emax [%],IC50 [nM],Emax (%)
"COC(=O)N1[C@H](C)C[C@H](NS(=O)(=O)CF)[C@@H]1CO[C@H]1CC[C@@]2(c3ncc(Cl)c(OC)n3)C[C@H]2C1 (single isomer, unassigned) [Example 84]",101,4.6,–
"COC(=O)N1[C@H](C)C[C@H](NS(=O)(=O)N(C)C)[C@@H]1COC1CCC2(c3cnccn3)CC2C1 (single isomer, unassigned) [Example 11]",96.1,–,–
"COC(=O)N1CC[C@H](NS(C)(=O)=O)[C@@H]1COC1CCC2(c3ncccn3)CC2C1 (stereo partly drawn) [Example 185, methyl (2R,3S)-3-(methylsulfonamido)-2-(((6-(pyrimidin-2-yl)bicyclo[4.1.0]heptan-3-yl)oxy)methyl)pyrrolidine-1-carboxylate]",94.6,–,–
"CC(C)OC(=O)N1[C@H](C)C[C@H](NS(=O)(=O)CF)[C@@H]1COC1CCC2(c3ncc(Br)cn3)CC2C1 (single isomer, unassigned) [Example 105]",91.7,233,–
"COC(=O)N1[C@H](C)C[C@H](NS(=O)(=O)N(C)C)[C@@H]1COC1CCC2(c3cc(F)cc(F)c3)CC2C1 (stereo partly drawn) [Example 4, methyl (2R,3S,5R)-2-(((6-(3,5-difluorophenyl)bicyclo[4.1.0]heptan-3-yl)oxy)methyl)-3-((N,N-dimethylsulfamoyl)amino)-5-methylpyrrolidine-1-carboxylate]",97.3,–,–
"COC(=O)N1[C@H](C)C[C@H](NS(C)(=O)=O)[C@@H]1COC1CCC2(c3ncccn3)CC2C1 (single isomer, unassigned) [Example 17]",–,2260,89.7
"COC(=O)N1[C@H](C)C[C@H](NS(C)(=O)=O)[C@@H]1COC1CCC2(c3ccccc3)CC2C1 (single isomer, unassigned) [Example 2]",–,176,100.5
"COC(=O)N1[C@H](C)C[C@H](NS(=O)(=O)CF)[C@@H]1CO[C@H]1CC[C@@]2(c3ncc(F)c(OC)n3)C[C@H]2C1 [Example 83, methyl (2R,3S,5R)-2-((((1S,3S,6R)-6-(5-fluoro-4-methoxypyrimidin-2-yl)bicyclo[4.1.0]heptan-3-yl)oxy)methyl)-3-((fluoromethyl)sulfonamido)-5-methylpyrrolidine-1-carboxylate]",100,7.6,–
"COC(=O)N1[C@H](C)C[C@H](NS(=O)(=O)Cc2ccccc2)[C@@H]1CO[C@@H]1CC[C@]2(c3ncc(F)cn3)C[C@@H]2C1 [Example 45, methyl (2R,3S,5R)-2-((((1R,3R,6S)-6-(5-fluoropyrimidin-2-yl)bicyclo[4.1.0]heptan-3-yl)oxy)methyl)-5-methyl-3-((phenylmethyl)sulfonamido)pyrrolidine-1-carboxylate]",92.7,–,–
"COC(=O)N1[C@H](C)C[C@H](NS(=O)(=O)N(C)C)[C@@H]1COC1CCC2(c3cnccn3)CC2C1 (stereo partly drawn) [Example 10, methyl (2R,3S,5R)-3-((N,N-dimethylsulfamoyl)amino)-5-methyl-2-(((6-(pyrazin-2-yl)bicyclo[4.1.0]heptan-3-yl)oxy)methyl)pyrrolidine-1-carboxylate]",85.6,–,–
"COC(=O)N1CC[C@H](NS(C)(=O)=O)[C@@H]1CO[C@H]1CC[C@@]2(c3ncccn3)C[C@H]2C1 (single isomer, unassigned) [Example 24]",–,238,99.8
"CC(C)OC(=O)N1[C@H](C)C[C@H](NS(=O)(=O)C(F)F)[C@@H]1CO[C@H]1CC[C@@]2(c3ncc(Cl)cn3)C[C@H]2C1 (single isomer, unassigned) [Example 81]",100,4.5,–
"COC(=O)N1[C@H](C)C[C@H](NS(=O)(=O)N(C)C)[C@@H]1COC1CCC2(c3ncccn3)C(C1)C2(F)F (stereo partly drawn) [Example 7, methyl (2R,3S,5R)-2-(((7,7-difluoro-6-(pyrimidin-2-yl)bicyclo[4.1.0]heptan-3-yl)oxy)methyl)-3-((N,N-dimethylsulfamoyl)amino)-5-methylpyrrolidine-1-carboxylate]",39.4,–,–
"COC(=O)N1[C@H](C)C[C@H](NS(=O)(=O)N(C)C)[C@@H]1COC1CCC2(c3ccccn3)CC2C1 (stereo partly drawn) [Example 9, methyl (2R,3S,5R)-3-((N,N-dimethylsulfamoyl)amino)-5-methyl-2-(((6-(pyridin-2-yl)bicyclo[4.1.0]heptan-3-yl)oxy)methyl)pyrrolidine-1-carboxylate]",99,–,–
"COC(=O)N1[C@H](C)C[C@H](NS(=O)(=O)Cc2ccccc2)[C@@H]1CO[C@H]1CC[C@@]2(c3ncc(F)cn3)C[C@H]2C1 [Example 34, methyl (2R,3S,5R)-2-((((1S,3S,6R)-6-(5-fluoropyrimidin-2-yl)bicyclo[4.1.0]heptan-3-yl)oxy)methyl)-5-methyl-3-((phenylmethyl)sulfonamido)pyrrolidine-1-carboxylate]",96.5,–,–

# Second part, the molecule after the results:
Emax [%],IC50 [nM],Emax (%),SMILES
98.4,–,–,"CCS(=O)(=O)N[C@H]1C[C@@H](C)N(C(=O)OC)[C@H]1CO[C@@H]1CC[C@]2(c3ncc(F)cn3)C[C@@H]2C1 [Example 47, methyl (2R,3S,5R)-3-(ethylsulfonamido)-2-((((1R,3R,6S)-6-(5-fluoropyrimidin-2-yl)bicyclo[4.1.0]heptan-3-yl)oxy)methyl)-5-methylpyrrolidine-1-carboxylate]"
104,–,–,"C[C@@H]1C[C@H](NS(C)(=O)=O)[C@H](CO[C@H]2CC[C@@]3(c4ncc(F)cn4)C[C@H]3C2)N1C(=O)OCC1CC1(F)F (stereo partly drawn) [Example 59, (2,2-difluorocyclopropyl)methyl (2R,3S,5R)-2-((((1S,3S,6R)-6-(5-fluoropyrimidin-2-yl)bicyclo[4.1.0]heptan-3-yl)oxy)methyl)-5-methyl-3-(methylsulfonamido)pyrrolidine-1-carboxylate]"
–,775,73.2,"CC(C)OC(=O)N1[C@H](C)C[C@H](NS(=O)(=O)C(F)F)[C@@H]1COC1CCC2(c3ncc(F)cn3)CC2C1 (single isomer, unassigned) [Example 92]"
102,19.6,–,"CC(C)OC(=O)N1[C@H](C)C[C@H](NS(C)(=O)=O)[C@@H]1CO[C@@H]1CC[C@]2(c3ncc(Cl)cn3)C[C@@H]2C1 (single isomer, unassigned) [Example 150]"
102,–,–,"C[C@@H]1C[C@H](NS(C)(=O)=O)[C@H](CO[C@H]2CC[C@@]3(c4ncc(F)cn4)C[C@H]3C2)N1C(=O)OC[C@H]1C[C@H]1F [Example 51, ((1R,2R)-2-fluorocyclopropyl)methyl (2R,3S,5R)-2-((((1S,3S,6R)-6-(5-fluoropyrimidin-2-yl)bicyclo[4.1.0]heptan-3-yl)oxy)methyl)-5-methyl-3-(methylsulfonamido)pyrrolidine-1-carboxylate]"
101,1.2,–,"CC(C)OC(=O)N1[C@H](C)C[C@H](NS(=O)(=O)C(F)F)[C@@H]1CO[C@H]1CC[C@@]2(c3ncc(F)cn3)C[C@H]2C1 (single isomer, unassigned) [Example 90]"
104,–,–,"CC(OC(=O)N1[C@H](C)C[C@H](NS(C)(=O)=O)[C@@H]1CO[C@H]1CC[C@@]2(c3ncc(F)cn3)C[C@H]2C1)C(F)F (stereo partly drawn) [Example 63, 1,1-Difluoropropan-2-yl (2R,3S,5R)-2-((((1S,3S,6R)-6-(5-fluoropyrimidin-2-yl)bicyclo[4.1.0]heptan-3-yl)oxy)methyl)-5-methyl-3-(methylsulfonamido)pyrrolidine-1-carboxylate]"
102,–,–,"C[C@@H]1C[C@H](NS(C)(=O)=O)[C@H](CO[C@H]2CC[C@@]3(c4ncc(F)cn4)C[C@H]3C2)N1C(=O)OCCC(F)F [Example 52, 3,3-difluoropropyl (2R,3S,5R)-2-((((1S,3S,6R)-6-(5-fluoropyrimidin-2-yl)bicyclo[4.1.0]heptan-3-yl)oxy)methyl)-5-methyl-3-(methylsulfonamido)pyrrolidine-1-carboxylate]"
103,49.5,–,"COC(=O)N1[C@H](C)C[C@H](NS(C)(=O)=O)[C@@H]1CO[C@H]1CC[C@@]2(c3ncc(C#N)cn3)C[C@H]2C1 [Example 190, methyl (2R,3S,5R)-2-((((1S,3S,6R)-6-(5-cyanopyrimidin-2-yl)bicyclo[4.1.0]heptan-3-yl)oxy)methyl)-5-methyl-3-(methylsulfonamido)pyrrolidine-1-carboxylate]"
100,0.99,–,"CCS(=O)(=O)N[C@H]1C[C@@H](C(F)F)N(C(=O)OC(C)C)[C@H]1CO[C@H]1CC[C@@]2(c3ncc(F)cn3)C[C@H]2C1 (single isomer, unassigned) [Example 118]"
98.5,–,–,"CC(C)OC(=O)N1[C@H](C)C[C@H](NS(=O)(=O)CF)[C@@H]1COC1CCC2(c3ncc(F)cn3)CC2C1 (stereo partly drawn) [Example 111, isopropyl (2R,3S,5R)-3-((fluoromethyl)sulfonamido)-2-(((6-(5-fluoropyrimidin-2-yl)bicyclo[4.1.0]heptan-3-yl)oxy)methyl)-5-methylpyrrolidine-1-carboxylate]"
99.2,–,–,"COC(=O)N1[C@H](C)C[C@H](NS(=O)(=O)CF)[C@@H]1CO[C@H]1CC[C@@]2(c3ncc(F)cn3)C[C@H]2C1 [Example 30, methyl (2R,3S,5R)-3-((fluoromethyl)sulfonamido)-2-((((1S,3S,6R)-6-(5-fluoropyrimidin-2-yl)bicyclo[4.1.0]heptan-3-yl)oxy)methyl)-5-methylpyrrolidine-1-carboxylate]"
103,–,–,"COC(=O)N1[C@H](C)C[C@H](NS(=O)(=O)C2CC2)[C@@H]1CO[C@H]1CC[C@@]2(c3ncc(F)cn3)C[C@H]2C1 [Example 42, methyl (2R,3S,5R)-3-(cyclopropanesulfonamido)-2-((((1S,3S,6R)-6-(5-fluoropyrimidin-2-yl)bicyclo[4.1.0]heptan-3-yl)oxy)methyl)-5-methylpyrrolidine-1-carboxylate]"
